Assays:
[1] = LogD (measured octanol water co-efficient); type: physicochemical
[2] = PAMPA (parallel artificial membrane permeability assay); type: in vitro ADME; conditions: FA: fraction absorbed
Description: (§1) Test compounds’ solubility was determined in a high-throughput thermodynamic solubility assay, as described previously. The PAMPA (parallel artificial membrane) assays were carried out, using a standard protocol. Plasma protein binding was determined by using mouse blood, whilst brain tissue binding was determined by using rat brain tissue homogenate. Intrinsic metabolic clearances were determined in mouse liver microsomes, using the compound depletion approach and LC–MS/MS quantification.

[3] = Intrinsic metabolic clearance in mouse liver microsomes; type: in vitro ADME; conditions: microsomes
Description: as §1

[4] = Intravenous pharmacokinetics in mouse; type: in vivo
Description: Determination of intravenous (i.v.) and per oral (p.o.) pharmacokinetics (PK) were carried out by using male BALB/c mice. […] To avoid any granular material, the solution was filtered, using a 0.45 μm syringe filter. The filtered solutions were dosed intravenously to mice via the lateral tail vein, at 5 mg/kg, with a dosing volume of 2 mL/kg. For all the p.o. PK studies, compounds were resuspended in 0.5% v/v methyl cellulose in 0.5 % v/v tween 80 solution. For 20 mg/kg dosing, 200 µL of compounds was administered orally to mice. […] Blood samples were collected into heparin microtainers and centrifuged, and then plasma was separated and frozen until analysis. Plasma samples (20 μL) were extracted with acetonitrile:methanol (3:1) containing internal standard. […] The supernatant was transferred to a 96-well analysis plate and analyzed, using optimized LC/MS/MS conditions. For every experiment, 3 mice were used per compound, per dose. The plasma concentration-time profile was obtained by plotting the mean value from the three animals at each time point. Various PK parameters, such as Cmax (maximum concentration), area under curve (AUC) and oral bioavailability (F) for compounds, were calculated by non-compartmental regression analysis, using an in-house fitting program developed at GNF [8]. All the in-life studies were carried out under protocols approved by the Animal Care and Use Committee (IACUC), following animal ethics guidelines of GNF.

T. b. brucei STIB795 = assay: Hemolymphatic mouse model (stage 1 HAT efficacy model); type: in vivo; conditions: for % Cured / Mean day of Relapse: four days
Description: The T. b. brucei STIB795 acute mouse model mimics the hemolymphatic stage of the sleeping sickness disease. We used six female NMRI mice per experimental group, divided into two cages. Heparinized blood from a donor mouse with approximately 5 × 10^6 per mL parasitemia was suspended in phosphate saline glucose (PSG), to obtain a parasite suspension of […]. Each mouse was injected with 0.25 mL of parasite suspension (10^4 bloodstream forms of T. b. brucei STIB795) intraperitoneally. All compounds were formulated in 0.5% methylcellulose and 0.5% Tween80. Three days post-infection, test compounds were administered orally on four consecutive days, in a volume of 100 µL/10 g. Three mice served as infected–untreated controls. […] Until 31 days post-infection, parasitemia was monitored microscopically by tail-blood examination twice a week. Mice were considered cured when there was no parasitemia detected in the tail blood. All the results from the individual experiments were reported as number of mice cured over total number of mice treated. A Kaplan–Meier plot was used for representing the number of mice cured at different treatment doses.

[5] = test system: MDR1-MDCK (Multi Drug Resistant 1 overexpressing Madin–Darby canine kidney cells); assay: in vitro; conditions: dog
Description: In order to evaluate potential of brain permeability, all three compounds were tested in an MDR1-MDCK permeability assay. […] Those that have a high efflux ratio are generally substrates for Pgp transporters, thereby having a higher propensity to be excluded from the brain. […] To assess directly the TP compounds’ ability to penetrate brain, mice were dosed with compound, and plasma and brains were collected after 5 and 60 min following intravenous dosing.

[6] = Brain-to-plasma drug concentration ratio in mice; type: in vivo; conditions: mouse, in vivo, read-out: B/P Ratio
Description: For measurement of the brain-to-plasma drug concentration ratio, mice were dosed intravenously with 1 mg/kg compounds. Mice were euthanized at 5 and 60 min post-dosing, and blood and brains were collected. The compound concentrations in plasma and brains were measured, following the protocol described above.

[7] = test system: T. b. brucei (GVR35-VSL2); assay: Meningoencephalic mouse model (stage 2 HAT efficacy model, GVR35) with bioluminescence imaging; type: in vivo
Description: The GVR35 mouse CNS model mimics the second (meningoencephalic) stage of African trypanosomiasis. Female CD1 mice (~8 weeks old, from Charles River) were injected intraperitoneally (i.p.) with 3 × 10^4 T. b. brucei (GVR35-VSL2) bloodstream-form parasites. As controls, a group of three untreated mice and another group of three mice treated with diminazene aceturate (DA) were included. […] Mice treated with DA usually relapse after 42 days post-infection. […]
Blood parasitemia was quantified weekly from day 21/22, by microscopy of blood from the tail vein. Mice were imaged for bioluminescence using an in vivo imaging system (IVIS) prior to treatment on day 21/22, and weekly after treatment, as described previously. Briefly, mice, in groups of three, were injected i.p. with 150 mg of D-luciferin (Promega) per kilogram body weight in PBS and imaged after 10 min, using an IVIS Spectrum (PerkinElmer, Waltham, Massachusetts MA, USA). Living Image Software (PerkinElmer) was used for acquisition and analysis of bioluminescence imaging data. Bioluminescence in the same rectangular region of interest (ROI) on whole-body mouse images was quantified and is shown in total flux (photons per second). Images were cropped to the ROIs and composites of images from representative mice are shown. Uncured mice were euthanized within 1 or 2 days of parasite detection in the blood. Cured mice were euthanized between day 92 and 101 post-infection. All the results from the individual experiments were reported as number of mice cured over total number of mice treated. A Kaplan–Meier plot was used for representing the number of mice cured at different treatment doses.

Cc1nc(C)c(C(=O)Nc2ccc(F)c(-c3nc4ncc(-c5ccccn5)cn4n3)c2)o1 [GNF6702]
logD [1]: 2.32
PAMPA Permeability (% FA) [2]: 92 % FA
microsomal CLint [3]: 34.1 µL/min/mg
T1/2 ([4]; i.v. 5 mg/kg, elimination half-life): 7.0 H
Vd ([4]; male, BALB/c, in vivo, iv, i.v. 5 mg/kg, read-out: Vss): 1.2 L/kg
clearance ([4]; male, BALB/c, plasma, iv, 5 mg/kg): 2.26 mL/min/kg
% Cured (T. b. brucei STIB795; 0.1 mg/kg QD oral): 0%
Mean day of Relapse (T. b. brucei STIB795; 0.1 mg/kg QD oral): 6.83 days post infection
% Cured (T. b. brucei STIB795; 0.3 mg/kg QD oral): 33.3%
Mean day of Relapse (T. b. brucei STIB795; 0.3 mg/kg QD oral): 19 days post infection
% Cured (T. b. brucei STIB795; 1 mg/kg QD oral): 100%
Mean day of Relapse (T. b. brucei STIB795; 1 mg/kg QD oral): >31 days post infection
% Cured (T. b. brucei STIB795; 3 mg/kg QD oral): 100%
Mean day of Relapse (T. b. brucei STIB795; 3 mg/kg QD oral): >31 days post infection
% Cured (T. b. brucei STIB795; 10 mg/kg QD oral): 100%
Mean day of Relapse (T. b. brucei STIB795; 10 mg/kg QD oral): >31 days post infection
Minimum efficacious dose (T. b. brucei STIB795; QD dosing for four days, stage 1 model): 1 mg/kg
MDR1-MDCK A–B [5]: 8.3
MDR1-MDCK B–A [5]: 22.1
Kp at 5 min ([6]; 5 min after 1 mg/kg i.v.): 0.13
Kp at 60 min ([6]; 60 min after 1 mg/kg i.v.): 0.17
% Cured ([7]; 3 mg/kg QD oral, seven days): 0%
Mean Day of Relapse ([7]; 3 mg/kg QD oral, seven days): 47 days post infection
% Cured ([7]; 10 mg/kg QD oral, seven days): 66%
Day of Relapse, mice which did not relapse (value in parenthesis) ([7]; 10 mg/kg QD oral, seven days): > 92 days post infection
Mean Day of Relapse ([7]; 10 mg/kg QD oral, seven days, mice which relapsed): 50 days post infection
% Cured ([7]; 30 mg/kg QD oral, seven days): 100%
Mean Day of Relapse ([7]; 30 mg/kg QD oral, seven days): >92 days post infection
% Cured ([7]; 100 mg/kg QD oral, seven days): 100%
Mean Day of Relapse ([7]; 100 mg/kg QD oral, seven days): >92 days post infection
Cure outcome ([7]; 30 and 100 mg/kg, once daily, oral): complete cure
Dose that completely cured stage 2 infection ([7]; HAT mouse model, stage 2): 30 mg/kg

Source: article PMC7157554, “Anti-Trypanosomal Proteasome Inhibitors Cure Hemolymphatic and Meningoencephalic Murine Infection Models of African Trypanosomiasis” (Tropical Medicine and Infectious Disease, 2020)
